Test results reported in a compilation of properties of binary mixtures (doi:10.1016/j.molliq.2014.09.055).

Assay: xn = mol fraction of the nth substance listed
Conditions: 101 kPa

CCOS(=O)(=O)[O-].CC[n+]1ccn(C)c1 + CC(=O)O
x2 = 0
Conditions	speed of sound [m/s]
293.15 K	1693.1
298.15 K	1680.8
303.15 K	1668.5

CCOS(=O)(=O)[O-].CC[n+]1ccn(C)c1 + CCC(=O)O
x2 = 0
Conditions	speed of sound [m/s]
293.15 K	1693.1
298.15 K	1680.8

CC(=O)O + CCOS(=O)(=O)[O-].CC[n+]1ccn(C)c1
speed of sound [m/s]
Conditions	293.15 K	298.15 K	303.15 K	308.15 K	313.15 K
x1 = 0.0978	–	–	1656.4	1644.2	–
x1 = 0.1993	–	1651.5	1639	1626.6	1614.3
x1 = 0.308	1644.8	1632.2	1619.5	1606.9	1594.4
x1 = 0.4031	1622.3	–	1596.6	–	–
x1 = 0.4737	1603.2	1590.2	1577.1	1564	1551.1
x1 = 0.5975	1560.5	1547.1	1533.6	1520.1	–
x1 = 0.701	1510.8	1497	1483.1	1469.2	1455.5
x1 = 0.8057	–	–	–	1394.1	1379.8
x1 = 0.8973	1339.1	1324	–	1293.3	1278
x1 = 0.9512	–	1237.2	1221	1204.9	1188.8
x1 = 1	1152.7	–	1118.4	1101.2	1084

CCC(=O)O + CCOS(=O)(=O)[O-].CC[n+]1ccn(C)c1
speed of sound [m/s]
Conditions	293.15 K	298.15 K	303.15 K	308.15 K	313.15 K
x1 = 0.0818	–	1665.8	1653.5	1641.2	1629.1
x1 = 0.1678	1659.4	1647	1634.6	1622.2	1609.9
x1 = 0.2655	1635.9	–	1610.7	–	1585.6
x1 = 0.3539	1611.6	1598.8	1585.9	–	1566
x1 = 0.4224	1590.3	1577.4	1564.4	1551.4	1538.5
x1 = 0.5516	1542.7	1529.4	1515.9	1502.5	1489.2
x1 = 0.6556	1494.8	1481	1467	1453.1	1439.4
x1 = 0.7707	1421.7	1407.2	1392.4	1377.8	1363.3
x1 = 0.8774	1320.2	1304.5	1288.6	1272.8	–
x1 = 0.9405	1240.4	1223.4	1206.2	–	1172.3
x1 = 1	1164.7	1146	1127.1	1108.3	1089.6
